# Data: PubChem BioAssay AID330 (DTP/NCI, 2004)
# Values joined by “and” are separate entries in the source; they are usually repeats but may differ in a detail not shown here. Equal values may be shown once. Inconclusive results and toxic doses are left out.
# System: P388 leukemia ip, CD2F1 mice, survival T/C
# Assay: NCI In Vivo Anticancer Drug Screen. Data for tumor model P388 Leukemia (intraperitoneal) in CD2F1 (CDF1) mice
# Settings: endpoint: median survival time, higher = longer survival
# Method in brief: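 Mice carrying the transplanted tumor received test compound or vehicle. Survival was recorded in each group, and the value is the treated-group measurement divided by that of the vehicle-treated control group.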
# [1] = dose: 50.0 mg/kg/injection, schedule: Q01DX005 (ip), vehicle: saline with Tween-80
# [2] = dose: 60.0 mg/kg/injection, schedule: Q01DX005 (ip), vehicle: saline with Tween-80
# [3] = dose: 120.0 mg/kg/injection, schedule: Q01DX005 (ip), vehicle: saline with Tween-80
# [4] = dose: 240.0 mg/kg/injection, schedule: Q01DX005 (ip), vehicle: saline with Tween-80
# [5] = dose: 50.0 mg/kg/injection, schedule: Q01DX009 (ip), vehicle: saline
# [6] = dose: 100.0 mg/kg/injection, schedule: Q01DX009 (ip), vehicle: saline
# [7] = dose: 100.0 mg/kg/injection, schedule: Q04DX003 (ip), vehicle: saline with Tween-80
# [8] = dose: 400.0 mg/kg/injection, schedule: Q04DX003 (ip), vehicle: saline with Tween-80
# [9] = dose: 100.0 mg/kg/injection, schedule: Q01DX009 (ip), vehicle: saline with Tween-80
# [10] = dose: 200.0 mg/kg/injection, schedule: Q01DX009 (ip), vehicle: saline with Tween-80
# [11] = dose: 400.0 mg/kg/injection, schedule: Q01DX009 (ip), vehicle: saline with Tween-80
# [12] = dose: 50.0 mg/kg/injection, schedule: Q01DX009 (ip), vehicle: Klucel (hydroxypropylcellulose) (HPC)
# [13] = dose: 100.0 mg/kg/injection, schedule: Q01DX009 (ip), vehicle: Klucel (hydroxypropylcellulose) (HPC)
# [14] = dose: 100.0 mg/kg/injection, schedule: Q01DX005 (ip), vehicle: saline with Tween-80
# [15] = dose: 200.0 mg/kg/injection, schedule: Q01DX005 (ip), vehicle: saline with Tween-80
structure (smiles),measurement,setting,value
CC12CCC3C(CCC4C(C)(C)C(O)CCC34C)(C1)OC2CO (stereo not drawn),T/C,"dose: 2.25 mg/kg/injection, schedule: Q01DX009 (ip), vehicle: Klucel (hydroxypropylcellulose) (HPC)",104 % of control
same,T/C,"dose: 4.5 mg/kg/injection, schedule: Q01DX009 (ip), vehicle: Klucel (hydroxypropylcellulose) (HPC)",108 % of control
same,T/C,"dose: 9.0 mg/kg/injection, schedule: Q01DX009 (ip), vehicle: Klucel (hydroxypropylcellulose) (HPC)",104 % of control
same,T/C,"dose: 18.0 mg/kg/injection, schedule: Q01DX009 (ip), vehicle: Klucel (hydroxypropylcellulose) (HPC)",118 % of control
COc1ccc2[nH]c3c(c2c1)C(c1ccccc1)c1ccccc1-3 (stereo not drawn),T/C,"dose: 12.5 mg/kg/injection, schedule: Q01DX005 (ip), vehicle: saline with Tween-80",100 % of control
same,T/C,"dose: 25.0 mg/kg/injection, schedule: Q01DX005 (ip), vehicle: saline with Tween-80",88 % of control
same,T/C,[1],90 % of control
NC(=S)c1ccc(N=Cc2cccc([N+](=O)[O-])c2)cc1,T/C,"dose: 100.0 mg/kg/injection, schedule: Q01DX001 (ip), vehicle: Klucel (hydroxypropylcellulose) (HPC)",98 % of control
same,T/C,"dose: 200.0 mg/kg/injection, schedule: Q01DX001 (ip), vehicle: Klucel (hydroxypropylcellulose) (HPC)",124 % of control
same,T/C,"dose: 400.0 mg/kg/injection, schedule: Q01DX001 (ip), vehicle: Klucel (hydroxypropylcellulose) (HPC)",104 % of control
CCc1c2c(cc3c1[nH]c1ccccc13)C(=O)N(c1ccc(OC)cc1)C2=O,T/C,"dose: 50.0 mg/kg/injection, schedule: Q01DX005 (ip), vehicle: Klucel (hydroxypropylcellulose) (HPC)",92 % of control
same,T/C,"dose: 100.0 mg/kg/injection, schedule: Q01DX005 (ip), vehicle: Klucel (hydroxypropylcellulose) (HPC)",91 % of control
same,T/C,"dose: 200.0 mg/kg/injection, schedule: Q01DX005 (ip), vehicle: Klucel (hydroxypropylcellulose) (HPC)",90 % of control
O=C1NN2CCN=C2c2ccccc21,T/C,[2],100 % of control
same,T/C,[3],104 % of control
same,T/C,[4],103 % of control
Cc1cc(C)n2ncnc2n1,T/C,"dose: 12.5 mg/kg/injection, schedule: Q01DX009 (ip), vehicle: saline",105 % of control
same,T/C,"dose: 25.0 mg/kg/injection, schedule: Q01DX009 (ip), vehicle: saline",100 % of control
same,T/C,[5],100 % of control
same,T/C,[6],103 % of control
CCN(CC)CCNc1ccc(CO)c2sc3ccccc3c(=O)c12,T/C,"dose: 5.0 mg/kg/injection, schedule: Q01DX005 (ip), vehicle: water",110 % of control
same,T/C,"dose: 5.0 mg/kg/injection, schedule: Q01DX009 (ip), vehicle: water",113 % of control
same,T/C,"dose: 6.25 mg/kg/injection, schedule: Q01DX005 (ip), vehicle: saline",104 % of control
same,T/C,"dose: 6.25 mg/kg/injection, schedule: Q01DX005 (iv), vehicle: saline",100 % of control
same,T/C,"dose: 10.0 mg/kg/injection, schedule: Q01DX005 (ip), vehicle: water",106 % of control
same,T/C,"dose: 10.0 mg/kg/injection, schedule: Q01DX009 (ip), vehicle: water",116 % of control
same,T/C,"dose: 10.36 mg/kg/injection, schedule: Q01DX005 (ip), vehicle: water",118 % of control
same,T/C,"dose: 12.5 mg/kg/injection, schedule: Q01DX005 (ip), vehicle: saline",101 % of control
same,T/C,"dose: 12.5 mg/kg/injection, schedule: Q01DX005 (iv), vehicle: saline",104 % of control
same,T/C,"dose: 12.5 mg/kg/injection, schedule: Q01DX009 (ip), vehicle: water",109 % of control
same,T/C,"dose: 17.28 mg/kg/injection, schedule: Q01DX005 (ip), vehicle: water",109 % of control
same,T/C,"dose: 20.0 mg/kg/injection, schedule: Q01DX005 (ip), vehicle: water",104 % of control
same,T/C,"dose: 20.0 mg/kg/injection, schedule: Q01DX009 (ip), vehicle: water",118 % of control
same,T/C,"dose: 25.0 mg/kg/injection, schedule: Q01DX005 (ip), vehicle: saline",109 % of control
same,T/C,"dose: 25.0 mg/kg/injection, schedule: Q01DX005 (iv), vehicle: saline",108 % of control
same,T/C,"dose: 25.0 mg/kg/injection, schedule: Q01DX009 (ip), vehicle: water",122 % of control
same,T/C,"dose: 28.8 mg/kg/injection, schedule: Q01DX005 (ip), vehicle: water",109 % of control
same,T/C,"dose: 50.0 mg/kg/injection, schedule: Q01DX005 (iv), vehicle: saline",117 % of control
same,T/C,"dose: 50.0 mg/kg/injection, schedule: Q01DX009 (ip), vehicle: water",156 % of control
same,T/C,"dose: 80.0 mg/kg/injection, schedule: Q01DX005 (ip), vehicle: water",151 % of control and 182 % of control
same,T/C,"dose: 100.0 mg/kg/injection, schedule: Q01DX009 (ip), vehicle: water",100 % of control
same,T/C,[7],118 % of control
same,T/C,"dose: 200.0 mg/kg/injection, schedule: Q04DX003 (ip), vehicle: saline sonified",150 % of control
same,T/C,[8],90 % of control
CCOC(=O)C(C(=O)OCC)C1CCS(=O)(=O)C1 (stereo not drawn),T/C,[9],109 % of control
same,T/C,[10],104 % of control
same,T/C,[11],104 % of control
CCOC(=O)c1ccccc1SC(C[N+](=O)[O-])c1ccccc1 (stereo not drawn),T/C,[12],105 % of control
same,T/C,[13],110 % of control
same,T/C,"dose: 200.0 mg/kg/injection, schedule: Q01DX009 (ip), vehicle: Klucel (hydroxypropylcellulose) (HPC)",110 % of control
CCN(CC)CCOc1c(Cl)cc(Cl)cc1Cl,T/C,[1],93 % of control
same,T/C,[14],111 % of control
same,T/C,[15],111 % of control
CNC(=S)SSC(=S)NCCNC(=S)SSC(=S)NC,T/C,[1],99 % of control
same,T/C,[14],106 % of control
same,T/C,[15],101 % of control
Cc1sc2ccccc2c(=O)c1CCl,T/C,[2],111 % of control
same,T/C,[3],104 % of control
CC1(C)OC(=O)C=C[C@]2(C)[C@H]3CC[C@]4(C)C(=CCC4c4ccoc4)[C@]3(C)[C@H](O)C[C@@H]12 (stereo partly drawn),T/C,"dose: 11.25 mg/kg/injection, schedule: Q01DX005 (ip), vehicle: Klucel (hydroxypropylcellulose) (HPC)",101 % of control
same,T/C,"dose: 22.5 mg/kg/injection, schedule: Q01DX005 (ip), vehicle: Klucel (hydroxypropylcellulose) (HPC)",98 % of control
same,T/C,"dose: 45.0 mg/kg/injection, schedule: Q01DX005 (ip), vehicle: Klucel (hydroxypropylcellulose) (HPC)",94 % of control
same,T/C,"dose: 90.0 mg/kg/injection, schedule: Q01DX005 (ip), vehicle: Klucel (hydroxypropylcellulose) (HPC)",98 % of control
same,T/C,"dose: 180.0 mg/kg/injection, schedule: Q01DX005 (ip), vehicle: Klucel (hydroxypropylcellulose) (HPC)",91 % of control
CCN1CC2(C)CCC(OC)C34C5CC6CCC(O)(C5C(=O)O6)C(C(O)C23)C14 (stereo not drawn),T/C,"dose: 25.0 mg/kg/injection, schedule: Q01DX009 (ip), vehicle: Klucel (hydroxypropylcellulose) (HPC)",100 % of control
same,T/C,[12],98 % of control
same,T/C,[13],95 % of control
CC1=CC2(C)C=C(C)C3(OC(c4ccccc4)=C(C#N)C3=N2)C1=O (stereo not drawn),T/C,[1],103 % of control
same,T/C,[14],105 % of control
same,T/C,[15],111 % of control
CC(=O)c1c(C)cc(C)c(C(C)=O)c1C,T/C,[5],102 % of control
same,T/C,[6],96 % of control
same,T/C,"dose: 200.0 mg/kg/injection, schedule: Q01DX009 (ip), vehicle: saline",91 % of control
CCC1C=Cc2ccccc2NC1 (stereo not drawn),T/C,[1],100 % of control
same,T/C,[14],94 % of control
same,T/C,[15],98 % of control
N#[O+].O.O=N[O-].O=N[O-].[NH2-].[NH2-].[Ru+2],T/C,"dose: 12.5 mg/kg/injection, schedule: Q04DX003 (ip), vehicle: water",110 % of control
same,T/C,"dose: 25.0 mg/kg/injection, schedule: Q04DX003 (ip), vehicle: water",111 % of control
same,T/C,"dose: 50.0 mg/kg/injection, schedule: Q04DX003 (ip), vehicle: water",118 % of control
same,T/C,"dose: 100.0 mg/kg/injection, schedule: Q04DX003 (ip), vehicle: water",111 % of control
same,T/C,"dose: 200.0 mg/kg/injection, schedule: Q04DX003 (ip), vehicle: water",102 % of control
Cc1cc(O)c(N=Nc2ccc(C(=O)O)cc2)cc1C,T/C,[9],100 % of control
same,T/C,[7],90 % of control
same,T/C,[10],95 % of control
same,T/C,[11],95 % of control
same,T/C,[8],90 % of control
O=C(CCCCCCCCCCC(=O)NO)NO,T/C,[2],105 % of control
same,T/C,[3],106 % of control
same,T/C,[4],110 % of control
